According to PubChem BioAssay AID687000 (Broad Institute, 2013):
Where “and” joins values, the source holds several entries; their conditions need not be identical. Equal entries are not always repeated. Calls of active or inactive are those of the source.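 How the source made its calls: active means fitted dose curve reaches 40% lysis signal rise at or below the highest valid concentration tested for that sample; inconclusive means flat fit between 30% and 70%, or poor curve fit; inactive means signal falls, stays flat within 30%, or no crossing.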

system: C. neoformans lysis, adenylate kinase release luminescence, 4 h; assay: inducers of Cryptococcus neoformans cell lysis, dose response, AK release luminescence, cherry-picks (AID 687000)

Row | Structure (SMILES) | AC40
1 | COc1ccc(CNC(=S)NCc2ccc(OC)cc2)cc1 | > 15 µM (inactive)
2 | COCC(=O)NC[C@H]1N[C@H](CO)[C@H]1c1ccc(C2=CCCC2)cc1 | > 15 µM (inactive)
3 | CCOC(=O)NC(=S)Nc1ccc(C(C)(C)C)cc1 | 1.21 µM
4 | COC(=O)C1=C(C)N(Cc2ccc(Br)cc2)C(=S)NC1c1ccc(F)cc1 (stereo not given) | 4.62 µM and 7.82 µM
5 | COC(=O)C1=C(C)N(Cc2ccc(F)cc2)C(=S)NC1c1cccc(Cl)c1 (stereo not given) | 2.41 µM and 3.17 µM
6 | Cc1c(C(=O)NC(=S)Nc2ccccc2N2CCCC2)cccc1[N+](=O)[O-] | > 15 µM (inactive)
7 | Cc1ccc(NC(=O)N2CCCC2C(=O)Nc2c(C)cc(C)cc2C)cc1 (stereo not given) | > 15 µM (inactive)
8 | Cc1ccc(OCCn2c(=S)[nH]c3ccccc32)c(C(C)C)c1 | 0.883 µM
9 | C[C@H]1CN([C@@H](C)CO)C(=O)c2cccc(NS(=O)(=O)c3ccc(Cl)cc3)c2O[C@@H]1CN(C)CC1CC1 | 3.75 µM
10 | Cc1noc(C)c1NC(=O)Nc1ccc2c(c1)C(=O)N([C@@H](C)CO)C[C@H](C)[C@H](CN(C)CC1CCCCC1)O2 | > 15 µM (inactive)
11 | Cc1ccc(CSc2ncnc3c2cnn3-c2ccc(C)cc2)cc1 | > 15 µM (inactive)
12 | COc1ccccc1/C=N/NC(=S)NCc1ccco1 | > 15 µM (inactive)
13 | COCCNC(=O)C[C@H]1C[C@@H]2c3cc(NC(=O)C4CCC4)ccc3O[C@@H]2[C@H](CO)O1 | > 15 µM (inactive)
14 | O=C(NC(=S)Nc1cc(Cl)ccc1N1CCOCC1)c1ccccc1[N+](=O)[O-] | 13.6 µM
15 | CNC[C@@H]1OCCCC[C@@H](C)Oc2ccc(NS(=O)(=O)c3ccc(Cl)cc3)cc2C(=O)N([C@H](C)CO)C[C@H]1C | > 15 µM (inactive)
16 | C[C@@H]1CCCCO[C@@H](CN(C)C(=O)Nc2cccc3ccccc23)[C@@H](C)CN([C@H](C)CO)C(=O)c2cc(NS(=O)(=O)c3ccccc3)ccc2O1 | 14.2 µM
17 | CCCC(=O)Nc1ccc2c(c1)C(=O)N(C)C[C@H](OC)[C@@H](C)CN(C(=O)c1cccnc1)[C@@H](C)CO2 | > 15 µM (inactive)
18 | COC(=O)C1=C(C)N(CC(C)C)C(=S)NC1c1ccc(F)cc1 (stereo not given) | 3.52 µM
19 | Cc1ccc(S(=O)(=O)N[C@H]2C=C[C@@H](CC(=O)N3CCC(Cc4ccccc4)CC3)O[C@H]2CO)cc1 | > 15 µM (inactive)
20 | COCC(=O)Nc1ccc2c(c1)C(=O)N(C)C[C@H](OC)[C@@H](C)CN(C(=O)c1ccccc1)[C@@H](C)CO2 | > 15 µM (inactive)
21 | CCCCNC(=S)N/N=C/c1ccc(C#N)cc1 | 4.58 µM
22 | CC(C)C#Cc1ccc([C@@H]2[C@H](CO)N3CCCCN(C(=O)c4ccc5c(c4)OCO5)C[C@@H]23)cc1 | > 15 µM (inactive)
23 | C[C@@H]1CCCCO[C@@H](CN(C)C(=O)Nc2ccc3c(c2)OCO3)[C@@H](C)CN([C@H](C)CO)C(=O)c2cc(NC(=O)Nc3cccc4ccccc34)ccc2O1 | > 15 µM (inactive)
24 | C[C@H]1CN([C@@H](C)CO)C(=O)c2cc(NC(=O)Nc3ccc(F)cc3)ccc2O[C@@H]1CN(C)S(C)(=O)=O | > 15 µM (inactive)
25 | N#Cc1ccc(C23CC4(C2)[C@H](CN(Cc2ccc(C(F)(F)F)cc2)[C@@H]4c2ccccc2)C3c2ccc(C(F)(F)F)cc2)cc1 (stereo not given in full) | > 15 µM (inactive)
